For this test, the system named is human CTPS1 versus CTPS2. Put plainly: Human CTPS1 versus CTPS2 selectivity assessment by RapidFire/MS analysis. In kind it is biochemical. Conditions: RapidFire/MS IC50 ratio. As to the method:
Human CTPS1 versus CTPS2 Selectivity Assessment by RapidFire/MS Analysis.
The enzyme inhibitory activities against each target isoform of interest may be determined for the compounds of the invention using an optimised RapidFire high-throughput mass spectrometry (RF/MS) assay format. RF/MS assays for both human CTPS1 and CTPS2 may be performed in assay buffer consisting of 50 mM HEPES (Merck), 20 mM MgCl2, 5 mM KCl, 1 mM DTT, 0.01% Tween-20, pH to 8.0 accordingly. Human full-length active C-terminal FLAG-His-tag CTPS1 (UniProtKB—P17812, CTPS[1-591]-[…]) may be obtained from Proteros biostructures GmbH. Human full length active C-terminal FLAG-His-Avi tagged CTPS2 (UniProtKB-Q9NRF8, CTPS2 [1-586]-[…]) may be obtained from Harker Bio.
Human CTPS (1 or 2) protein may be prepared in 1× assay buffer to the final working protein concentration required for the reaction. A 2 uL volume per well of 2×CTPS (1 or 2) protein may be mixed with 40 nL of compound using acoustic (ECHO) delivery and incubated for 10 minutes at 25° C. Each isoform enzymatic reaction may be subsequently initiated by addition of 2 uL per well of a 2× substrate mix in assay buffer. For hCTPS1: ATP (0.3 mM), UTP (0.2 mM), GTP (0.07 mM) and L-glutamine (0.1 mM). For hCTPS2: ATP (0.1 mM), UTP (0.04 mM), GTP (0.03 mM) and L-glutamine (0.1 mM). Each mixture may be incubated for an appropriate amount of time per isoform within the determined linear phase of the reaction at 25′C. A 60 uL volume of stop solution (1% formic acid with 0.5 uM ^13C9-^15N3-CTP in H2O) may be added and the plate immediately heat-sealed and centrifuged for 10 minutes at 4,000 rpm. Following centrifugation, plates may be loaded onto the Agilent RapidFire microfluidic solid phase extraction system coupled to an API4000 triple quadrupole mass spectrometer (RF/MS) for analysis.
In all cases, the enzyme converts UTP to CTP. Highly specific and sensitive multiple reaction monitoring (MRM) MS methods may be optimised for the detection of the enzymatic reaction product, CTP, and the stable isotope labelled product standard ^13C9-^15N3-CTP. Readout for data analysis may be calculated as the ratio between the peak area of the product CTP and the internal standard ^13C9-^15N3-CTP. For data reporting, the following equation may be used: […]
For each screening plate, the means of the negative (DMSO) and positive control values were used for the calculation of the respective assay window (S/B) and Z′ values. The median of the respective control values was used for calculation of percent inhibition according to the following equation: […]
Percentage inhibition was then plotted against compound concentration, and the 50% inhibitory concentration (IC50) was determined from the resultant concentration-response curve.
Fold selectivity between CTPS1 and CTPS2 was subsequently calculated according to the following equation: […]

Take `CCOc1cncc(-c2ccc(NC(=O)C(F)(CC)c3ccnc(NS(=O)(=O)C4CC4)n3)nc2)n1` (racemic) [Example P112, 2-(2-(Cyclopropanesulfonamido)pyrimidin-4-yl)-N-(5-(6-ethoxypyrazin-2-yl)pyridin-2-yl)-2-fluorobutanamide]: the “Selectivity (fold selectivity between CTPS1 and CTPS2)” value (Table 26) is “++ (>30-60 fold (++))”.

With `CCOc1cncc(-c2ccc(NC(=O)C(F)(CC)c3ccnc(NS(=O)(=O)C4CC4)n3)nc2)n1` (single isomer, unassigned) [Example P113, 2-(2-(cyclopropanesulfonamido)pyrimidin-4-yl)-N-(5-(6-ethoxypyrazin-2-yl)pyridin-2-yl)-2-fluorobutanamide], under “Table 26”, the “Selectivity (fold selectivity between CTPS1 and CTPS2)” value is “+ (2-30 fold (+))”.

Turning to `CCOc1cncc(-c2ccc(NC(=O)C(F)(CC)c3ccnc(NS(=O)(=O)C4CC4)n3)nc2)n1` (single isomer, unassigned) [Example P114, 2-(2-(cyclopropanesulfonamido)pyrimidin-4-yl)-N-(5-(6-ethoxypyrazin-2-yl)pyridin-2-yl)-2-fluorobutanamide], the “Selectivity (fold selectivity between CTPS1 and CTPS2)” value (Table 26) is recorded as “+++ (>60 fold (+++))”.

For the compound `CCOc1cncc(-c2ccc(NC(=O)C(F)(CC)c3cncc(NS(=O)(=O)C4CC4)n3)nc2)n1` (single isomer, unassigned) [Example P206], for the setting “Table 26”, the “Selectivity (fold selectivity between CTPS1 and CTPS2)” value is on record as “+++ (>60 fold (+++))”.

For the compound `CCOc1cncc(-c2ccc(NC(=O)C(F)(CC)c3cncc(NS(=O)(=O)C4CC4)n3)nc2)n1` (single isomer, unassigned) [Example P207], where the note is “Table 26”, the “Selectivity (fold selectivity between CTPS1 and CTPS2)” value was “+ (2-30 fold (+))”.

Turning to `CCOc1cncc(-c2ccc(NC(=O)C3(c4ccnc(NS(=O)(=O)C5CC5)n4)CCC(O)CC3)nc2)n1` (single isomer, unassigned) [Example P227, 1-(2-(cyclopropanesulfonamido)pyrimidin-4-yl)-N-(5-(6-ethoxypyrazin-2-yl)pyridin-2-yl)-4-hydroxycyclohexanecarboxamide], the “Selectivity (fold selectivity between CTPS1 and CTPS2)” value (Table 27) is given as “+++ (>60 fold (+++))”.

In the case of `CCOc1cncc(-c2ccc(NC(=O)C3(c4ccnc(NS(=O)(=O)C5CC5)n4)CCC(O)CC3)nc2)n1` (single isomer, unassigned) [Example P228, 1-(2-(cyclopropanesulfonamido)pyrimidin-4-yl)-N-(5-(6-ethoxypyrazin-2-yl)pyridin-2-yl)-4-hydroxycyclohexanecarboxamide], the “Selectivity (fold selectivity between CTPS1 and CTPS2)” value (Table 27) is recorded as “+ (2-30 fold (+))”.

As for `CCOc1cncc(-c2ccc(NC(=O)C3(c4ccnc(NS(=O)(=O)C5CC5)n4)CCC(N(C)C)CC3)nc2)n1` (single isomer, unassigned) [Example P229, 1-(2-(cyclopropanesulfonamido)pyrimidin-4-yl)-4-(dimethylamino)-N-(5-(6-ethoxypyrazin-2-yl)pyridin-2-yl)cyclohexane-1-carboxamide], the “Selectivity (fold selectivity between CTPS1 and CTPS2)” value (Table 27) is recorded as “+++ (>60 fold (+++))”.

Consider `CCOc1cncc(-c2ccc(NC(=O)C3(c4ccnc(NS(=O)(=O)C5CC5)n4)CCC(N(C)C)CC3)nc2)n1` (single isomer, unassigned) [Example P230, 1-(2-(cyclopropanesulfonamido)pyrimidin-4-yl)-4-(dimethylamino)-N-(5-(6-ethoxypyrazin-2-yl)pyridin-2-yl)cyclohexane-1-carboxamide], for which, where the note is “Table 27”, the “Selectivity (fold selectivity between CTPS1 and CTPS2)” value is given as “+++ (>60 fold (+++))”.

Turning to `CCC(C(=O)Nc1ccc(-c2cncc(Cl)c2)cc1)c1ccnc(NS(=O)(=O)C2CC2)n1` (centres unmarked) [Example P1, N-(4-(5-Chloropyridin-3-yl)phenyl)-2-(2-(cyclopropanesulfonamido)pyrimidin-4-yl)butanamide], the “Selectivity (fold selectivity between CTPS1 and CTPS2)” value (Table 26) is listed as “+ (2-30 fold (+))”.

`CCOc1cncc(-c2ccc(NC(=O)C3(c4ccnc(NS(=O)(=O)C5CC5)n4)CCCC3)cc2)n1` [Example P2, 1-(2-(Cyclopropanesulfonamido)pyrimidin-4-yl)-N-(4-(6-ethoxypyrazin-2-yl)phenyl)cyclopentanecarboxamide]: the “Selectivity (fold selectivity between CTPS1 and CTPS2)” value (Table 26) is reported as “+++ (>60 fold (+++))”.

With `CC(C)Oc1cncc(-c2ccc(NC(=O)Cc3ccnc(NS(=O)(=O)C4CC4)n3)c(F)c2)n1` [Example P12], where the note is “Table 26”, the “Selectivity (fold selectivity between CTPS1 and CTPS2)” value is “++ (>30-60 fold (++))”.

Take `O=C(Cc1ccnc(NS(=O)(=O)C2CC2)n1)Nc1ccc(-c2cccnc2)cc1` [Example P16]: where the note is “Table 26”, the “Selectivity (fold selectivity between CTPS1 and CTPS2)” value is “++ (>30-60 fold (++))”.

In the case of `CCOc1cncc(-c2ccc(NC(=O)Cc3ccnc(NS(=O)(=O)C4CC4)n3)cc2)n1` [Example P18, 2-(2-(Cyclopropanesulfonamido)pyrimidin-4-yl)-N-(4-(6-ethoxypyrazin-2-yl)phenyl)acetamide], for the setting “Table 26”, the “Selectivity (fold selectivity between CTPS1 and CTPS2)” value was “++ (>30-60 fold (++))”.

`CC(C)Oc1cncc(-c2ccc(NC(=O)Cc3ccnc(NS(=O)(=O)C4CC4)n3)cc2)n1` [Example P21]: the “Selectivity (fold selectivity between CTPS1 and CTPS2)” value (Table 26) is “++ (>30-60 fold (++))”.

Consider `CCOc1cncc(-c2ccc(NC(=O)C(C)(C)c3ccnc(NS(=O)(=O)C4CC4)n3)nc2)n1` [Example P31], for which the “Selectivity (fold selectivity between CTPS1 and CTPS2)” value (Table 26) was “+++ (>60 fold (+++))”.

Consider `CCOc1cncc(-c2ccc(NC(=O)C(C)(C)c3ccnc(NS(=O)(=O)C4CC4)n3)c(C#N)c2)n1` [Example P34], for which the “Selectivity (fold selectivity between CTPS1 and CTPS2)” value (Table 26) is on record as “+ (2-30 fold (+))”.

For the compound `CCOc1cncc(-c2ccc(NC(=O)C(C)(C)c3ccnc(NS(=O)(=O)C4CC4)n3)c(F)c2)n1` [Example P38], the “Selectivity (fold selectivity between CTPS1 and CTPS2)” value (Table 26) is “+ (2-30 fold (+))”.

On to `CC(C)Oc1cncc(-c2ccc(NC(=O)C(C)(C)c3ccnc(NS(=O)(=O)C4CC4)n3)c(F)c2)n1` [Example P39], for which the “Selectivity (fold selectivity between CTPS1 and CTPS2)” value (Table 26) was “+ (2-30 fold (+))”.

As for `CC(C)(C(=O)Nc1ccc(-c2cccnc2)cc1)c1ccnc(NS(=O)(=O)C2CC2)n1` [Example P59], the “Selectivity (fold selectivity between CTPS1 and CTPS2)” value (Table 26) is listed as “+ (2-30 fold (+))”.

For the compound `CCOc1cncc(-c2ccc(NC(=O)C(C)(C)c3nc(NS(=O)(=O)C4CC4)ncc3F)cc2)n1` [Example P68], the “Selectivity (fold selectivity between CTPS1 and CTPS2)” value (Table 26) is listed as “++ (>30-60 fold (++))”.

Turning to `CCOc1cncc(-c2ccc(NC(=O)C(C)(C)c3nc(NS(=O)(=O)C4CC4)ncc3C)cc2)n1` [Example P70], under “Table 26”, the “Selectivity (fold selectivity between CTPS1 and CTPS2)” value is reported as “+ (2-30 fold (+))”.

For the compound `CCOc1cncc(-c2ccc(NC(=O)C(C)(C)c3ccnc(NS(=O)(=O)CC)n3)cc2)n1` [Example P74], under “Table 26”, the “Selectivity (fold selectivity between CTPS1 and CTPS2)” value is given as “++ (>30-60 fold (++))”.

Take `CCOc1cncc(-c2ccc(NC(=O)C(C)(C)c3ccnc(NS(C)(=O)=O)n3)nc2)n1` [Example P76]: under “Table 26”, the “Selectivity (fold selectivity between CTPS1 and CTPS2)” value was “++ (>30-60 fold (++))”.

As for `CCOc1cncc(-c2ccc(NC(=O)C3(c4ccnc(NS(=O)(=O)C5CC5)n4)CC3)cc2)n1` [Example P83], the “Selectivity (fold selectivity between CTPS1 and CTPS2)” value (Table 26) is “+++ (>60 fold (+++))”.

As for `CCC(C(=O)Nc1ccc(-c2cncc(C(F)(F)F)n2)cn1)c1ccnc(NS(=O)(=O)C2CC2)n1` (centres unmarked) [Example P87], the “Selectivity (fold selectivity between CTPS1 and CTPS2)” value (Table 26) is listed as “++ (>30-60 fold (++))”.

Take `CCOc1cncc(-c2ccc(NC(=O)C(CC)c3ccnc(NS(=O)(=O)C4CC4)n3)nc2)n1` (centres unmarked) [Example P88]: under “Table 26”, the “Selectivity (fold selectivity between CTPS1 and CTPS2)” value is recorded as “+++ (>60 fold (+++))”.

Take `CCC(C(=O)Nc1ccc(-c2cncc(OC(C)C)n2)cn1)c1ccnc(NS(=O)(=O)C2CC2)n1` (centres unmarked) [Example P89]: the “Selectivity (fold selectivity between CTPS1 and CTPS2)” value (Table 26) was “+++ (>60 fold (+++))”.

For `CCC(C(=O)Nc1ccc(-c2cncc(OC)n2)cc1F)c1ccnc(NS(=O)(=O)C2CC2)n1` (centres unmarked) [Example P95], the “Selectivity (fold selectivity between CTPS1 and CTPS2)” value (Table 26) is on record as “+ (2-30 fold (+))”.

Take `CCOc1cncc(-c2ccc(NC(=O)C(CC)c3ccnc(NS(=O)(=O)C4CC4)n3)c(F)c2)n1` (centres unmarked) [Example P96]: for the setting “Table 26”, the “Selectivity (fold selectivity between CTPS1 and CTPS2)” value is “+ (2-30 fold (+))”.

Regarding `CCC(C(=O)Nc1ccc(-c2cncc(OCC(F)(F)F)n2)cc1F)c1ccnc(NS(=O)(=O)C2CC2)n1` (centres unmarked) [Example P98], the “Selectivity (fold selectivity between CTPS1 and CTPS2)” value (Table 26) is “+++ (>60 fold (+++))”.

For the compound `CCC(C(=O)Nc1ccc(-c2cncc(C(F)(F)F)n2)cc1)c1ccnc(NS(=O)(=O)C2CC2)n1` (centres unmarked) [Example P103], the “Selectivity (fold selectivity between CTPS1 and CTPS2)” value (Table 26) was “+ (2-30 fold (+))”.

Values taken from US20230020663A1, “SULFONAMIDE INHIBITORS AS CTPS1 INHIBITORS” (Step Pharma S.A.S., priority 2019, published 2023).
